# Patent publication US11779594B2, “Compositions for the treatment of epithelial lesions” (INTERNATIONAL HEALTH SCIENCE S.R.L., priority 2019, dated 2023)
# Tested on: COLO-680N esophagus cells
# Assay: scratch wound healing of COLO-680N esophagus cell monolayer irritated with BSC medium
# Assay type: cell-based, human
# Details: COLO-680N cells treated with BSC; vs placebo, P<0.05 (FIG. 5)
# Protocol: The adhesive, barrier, soothing and repairing effects of a composition of the invention was studied in different experimental models of esophageal epithelial cells (i.e. CP-A and COLO-680N) by simulating in vitro the damage induced by gastric content on the esophagus.
# To this aim, we incubated the cell monolayer with a medium (named BSC) containing bile salts cocktail, pepsin and pH 2.5 (thus simulating the gastric juice).
# The significant repairing effect was assessed as described in FIG. 1-5. Confluent monolayers of COLO-680N esophagus cells, cultured in a 24 well plate, were scraped with a pipette tip and, after washing twice with PBS, were incubated with BSC (irritant medium simulating the gastro-intestinal juice) or culture medium alone as a negative control. […] Wound closure (healing) was evaluated up to 24 h under a Leica DMIL inverted microscope (Leica Microsystem) and images were collected using a Canon Powershot A640 digital camera (Canon). The cellular movements, distance and cell number were used for quantitative evaluations. The images were analyzed by ImaJ software. Results were analyzed by statistical method for assessing the significance compared to both controls and single component of the invention; the differences were considered significant for p<0.05 (FIG. 5).
substance,measurement,value
sodium hyaluronate [HA],"quantified wound healing effect (number of cells, movements, distance covered)",do not exert wound healing effect
